The source of these data is ChEMBL document CHEMBL5346934 (J Med Chem, 2023).

Experiment [1] concerns Vaccinia virus. The experiment in a line: Antiviral activity against Vaccinia virus infected in African green monkey Vero cells assessed as reduction virus induced cytopathic effect incubated for 24 hrs by MTT assay. It counts as functional, organism-based. The following applies: Orthopoxvirus vaccinia. (Protection from cytopathic effect is a common read-out in antiviral testing.)

The test system of experiment [2] is Vaccinia virus. The experiment in a line: Antiviral activity against Vaccinia virus Copenhagen infected in African green monkey Vero cells measured after 4 days by colorimetric assay. It is filed as functional, organism-based. The conditions noted are these: Orthopoxvirus vaccinia, 96 h.
In the next experiment the test system is Ectromelia virus. The experiment in a line: Antiviral activity against ectromelia virus K-1 infected in Vero cells measured after 4 days by colorimetric assay. It is filed as functional, organism-based. The following applies: K-1, Vero, 96 h.
A further experiment concerns Cowpox virus. The experiment in a line: Antiviral activity against Cowpox virus Grishak infected in African green monkey Vero cells measured after 4 days by colorimetric assay. It counts as functional, organism-based. The following applies: 96 h.
The test system of experiment [3] is Vaccinia virus. Nature of the experiment: Antiviral activity against Vaccinia virus infected in human HEL cells. It is filed as functional, organism-based. The following applies: Orthopoxvirus vaccinia.
A further experiment deals with HEL. The experiment in a line: Cytotoxicity against human HEL cells assessed as reduction in cell growth. It counts as functional.
Experiment [4] concerns Vaccinia virus. Nature of the experiment: Antiviral activity against Vaccinia virus infected in African green monkey CV-1 cells assessed as reduction in virus-induced cytopathic effect incubated for 5 days by colorimetric analysis. The conditions noted are these: Orthopoxvirus vaccinia, CV-1, 120 h. It counts as functional, organism-based.
For experiment [5], the system named is Vaccinia virus. Nature of the experiment: Antiviral activity against Vaccinia virus Copenhagen infected in human HFF cells assessed as assessed as reduction in virus-induced cytopathic effect incubated for 7 days by microscopic analysis. It is filed as functional, organism-based. The following applies: Orthopoxvirus vaccinia, 168 h.

The EC50 is the concentration giving half of the maximal effect. By IC50 is commonly meant the concentration that inhibits the measured activity by half. The CC50 is the concentration that lowers cell viability or growth by half.

SMILES strings stand for the structures.

Regarding `CCCCCCCCCCCCCCCCCCOCCOP(=O)(O)CO[C@H](CO)Cn1ccc(N)nc1=O`, the EC50 in the experiment with Vaccinia virus [1] is 200 nM.
On to `CC1(C)[C@@H]2CC[C@@]1(C)[C@@H](NC(=O)C1CCCCC1)C2`, for which the IC50 came out at 1400 nM with Vaccinia virus [2], 6200 nM in the experiment on Ectromelia virus and 14400 nM in the experiment on Cowpox virus.
In the experiment on Vaccinia virus [3], `O=C1N(Nc2ccc([N+](=O)[O-])cc2)C(=O)C23C4C=CC5C4C4C(C=CC42)C153` returned an IC50 of 3000 nM. In addition, the 50% cytotoxic concentration (CC50) in the experiment on HEL is above 100000 nM.
For the compound `CC1(C)[C@@H]2CC=C(C(=O)NC34CC5CC(CC(C5)C3)C4)[C@H]1C2`, the IC50 was found to be 2500 nM in the experiment with Vaccinia virus [2], 1700 nM with Ectromelia virus and 7200 nM with Cowpox virus.
As to `O=C(NN1C(=O)C2C3C=CC(C4CC34)C2C1=O)c1cc(Br)cc(Br)c1O` (configuration not stated), the concentration for half-maximal inhibition (IC50) with Vaccinia virus [2] came out at 1.05 µg/mL.
In the experiment with Vaccinia virus [3], `O=C1N(Nc2ccc(Cl)c(Cl)c2)C(=O)C23C4C=CC5C4C4C(C=CC42)C153` yielded an IC50 of 480 nM. The CC50 in the experiment with HEL was above 100000 nM.
The matching figures for `O=C1N(Nc2ccc(Br)cc2)C(=O)C23C4C=CC5C4C4C(C=CC42)C153`: 7300 nM and above 100000 nM.
With `CC1(C)[C@@H]2CC[C@@]1(C)[C@@H](NC(=O)c1ccc(Br)cc1)C2`, the concentration for half-maximal inhibition (IC50) with Vaccinia virus [2] stood at 360 nM; in the experiment on Ectromelia virus it was 700 nM; in the experiment with Cowpox virus it was 1900 nM.
On to `O=C1N(Nc2ccc(Cl)c(Br)c2)C(=O)C23C4C=CC5C4C4C(C=CC42)C153`, for which, in the experiment on Vaccinia virus [3], the half-inhibitory concentration (IC50) was found to be 160 nM. The half-maximal cytotoxic concentration (CC50) in the experiment with HEL was above 100000 nM.
On to `O=C(NN1C(=O)C2C3C=CC(C4CC34)C2C1=O)c1cc(Cl)cc(Cl)c1` (configuration not stated), for which 0.95 µg/mL corresponded to half-maximal inhibition in the experiment on Vaccinia virus [2] (IC50).
Same read-out and setting: the value for `O=C(NN1C(=O)C2C3C=CC(C4CC34)C2C1=O)c1ccc(O)c([N+](=O)[O-])c1` (configuration not stated) was 0.38 µg/mL.
As for `CC1(C)[C@@H]2CC[C@@]1(C)[C@@H](NC(=O)c1ccc([N+](=O)[O-])cc1)C2`, the figures for the IC50 in the experiment on Vaccinia virus [2], in the experiment with Ectromelia virus and in the experiment on Cowpox virus were 30 nM, 410 nM and 1400 nM, respectively.
With `CC[C@H]1CN2CCc3cc(OC)c(OC)cc3[C@@H]2CC1C[C@H]1NCCc2cc(O)c(OC)cc21` (some centres not stated), in the experiment on Vaccinia virus [4], the EC50 worked out at 125 nM.
As for `CC1(C)[C@@H]2CC[C@@]1(C)[C@H](NC(=O)c1ccc([N+](=O)[O-])cc1)C2`, the IC50 with Vaccinia virus [2] amounted to 900 nM; with Ectromelia virus, 8000 nM; in the experiment on Cowpox virus, 18400 nM.
In the case of `O=C1N(Nc2ccc(Cl)c(C(F)(F)F)c2)C(=O)C23C4C=CC5C4C4C(C=CC42)C153`, it took 800 nM to reach half-maximal inhibition in the experiment on Vaccinia virus [3] (IC50). In the experiment with HEL, the cytotoxic concentration (CC50) is above 100000 nM.
`CCOc1ccc2c(c1)[C@H]1C=CC[C@H]1[C@H](c1ccccc1Cl)N2`: the concentration giving a half-maximal response (EC50) in the experiment with Vaccinia virus [5] was determined as 13900 nM.
Take `CCCCCCCCCCCCCC[N+]12CC[N+](CCCC(=O)N[C@@H](Cc3c[nH]cn3)C(=O)O)(CC1)CC2`: the concentration giving a half-maximal response (EC50) in the experiment with Vaccinia virus [4] was 400000 nM.
For the compound `CC1(C)[C@@H]2CC[C@@]1(C)/C(=N/NC(=O)C1CCC(F)(F)CC1)C2`, the IC50 worked out at 1800 nM in the experiment on Vaccinia virus [2], 7800 nM in the experiment on Ectromelia virus and 8300 nM in the experiment with Cowpox virus.
In the experiment with Vaccinia virus [2], `CCCCCCCCCCOc1ccc(C(=O)NN2C(=O)C3C4C=CC(C5CC45)C3C2=O)cc1` (configuration not stated) gave an IC50 of 1.7 µg/mL.
On to `CC(=O)C1=C2C=CCCN2C(=O)NC1c1cccc(F)c1` (configuration not stated), for which, in the experiment on Vaccinia virus [1], the IC50 came to 100 nM.
Turning to `CC1(C)[C@@H]2CC[C@@]1(C)[C@@H](NC(=O)c1ccc(C(F)(F)F)cc1)C2`, the IC50 in the experiment on Vaccinia virus [2] is 600 nM; in the experiment on Ectromelia virus, 6900 nM; in the experiment with Cowpox virus, 6100 nM.
The matching figures for `CC1(C)[C@@H]2CC=C(CCNC(=O)C34CC5CC(CC(C5)C3)C4)[C@H]1C2`: 1800 nM, 1600 nM and 4100 nM.
For `CC1(C)[C@@H]2CC[C@@]1(C)[C@H](NC(=O)c1ccc(Cl)cc1)C2`, the half-maximal inhibitory concentration (IC50) in the experiment on Vaccinia virus [2] was determined as 600 nM; in the experiment with Ectromelia virus, 3300 nM; in the experiment with Cowpox virus, 9200 nM.
For `CCCCCCCCCCCC[N+]12CC[N+](CC#CC[N+]34CC[N+](CCCCCCCCCCCC)(CC3)CC4)(CC1)CC2`, in the experiment on Vaccinia virus [4], the EC50 amounted to 100000 nM.
On to `O=C1N(Nc2ccc(Cl)cc2)C(=O)C23C4C=CC5C4C4C(C=CC42)C153`, for which half-maximal inhibition with Vaccinia virus [3] (IC50) was put at 8300 nM. In addition, the CC50 in the experiment on HEL is above 100000 nM.
In turn, `O=C(Nc1cccc(C(F)(F)F)c1)C(=O)NN1C(=O)C2C3C=CC(C4CC34)C2C1=O` (configuration not stated) registered a half-maximal inhibitory concentration (IC50) in the experiment with Vaccinia virus [2] of 1.3 µg/mL.
Consider `CC(=O)C1=C2C=CCCN2C(=O)NC1c1ccccc1` (configuration not stated), for which the half-inhibitory concentration (IC50) in the experiment with Vaccinia virus [1] came to 5900 nM.
For `Cc1cccc(C)c1NC(=O)C(=O)NN1C(=O)C2C3C=CC(C4CC34)C2C1=O` (configuration not stated), the midpoint of inhibition in the experiment on Vaccinia virus [2], the IC50, lay at 1.28 µg/mL.
